Experimental data published in patent US20020120098A1, “Enhanced stimulation of erythropoiesis” (priority 1996, published 2002).

How the values were obtained:
[1] = test system: erythroid progenitors; assay: Colony formation assay, adult peripheral blood LDMNC: erythroid progenitors overall; assay type: cell-based, human; conditions: for growth of erythroid progenitors in the absence of Epo, adult blood: 0 U/ml Epo; for erythroid progenitor number, adult blood, 5% O2 and 0.2 U/ml Epo (in words): 5% O2, 0.2 U/ml Epo, over untreated controls under the same conditions
Method: Blood was collected with informed consent from the antecubital vein of healthy adult human volunteers into vacutainers containing 143 USP U/ml sodium heparin. Low density mononuclear cells (LDMNC) were isolated by centrifugation over a density gradient as described in Example 1. Plastic adherent cells were removed by an overnight incubation in a tissue culture flask and the non-adherent cells were placed directly in a CFA. Conditions for the CFA are similar to those described in Examples 1-4.
Mean fold increase in adult blood BFU-E, CFU-E and CFU-GM progenitor number in the presence of reduced Epo (0.2 U/ml) (n=3) at 20% O2 is shown in FIG. 11 with and without (no addition) the additives used in FIG. 9. Results are expressed relative to control cells at 2 U/ml Epo treated only with the respective vehicles (solid line at fold expansion=1.0). […] As with cord blood, CFU-GM numbers were unaffected by reductions in Epo. The addition of HAo or HEMOLINK™ to CFAs containing 0.2 U/ml Epo stimulated ˜4.5- and ˜3.5-fold increases in BFU-E and CFU-E, respectively, compared to untreated controls (no addition), restoring the progenitor number to that obtained at 2 U/ml Epo. Hemin stimulated the greatest increase in BFU-E and CFU-E (˜9- and ˜6-fold, respectively) at 0.2 U/ml Epo versus the untreated controls (no addition). FeCl3 stimulated only a ˜2-fold increase in erythroid progenitor number at 0.2 U/ml Epo.
Mean fold increase in adult blood BFU-E, CFU-E and CFU-GM progenitor number at 5% O2 in the presence of reduced Epo (0.2 U/ml) (n=3) is shown in FIG. 12 with and without the additives used in FIG. 9. Results are expressed relative to control cells at 2 U/ml Epo treated only with the respective vehicles and cultured at ambient oxygen tensions (˜20% O2) for 14 days (solid line at fold expansion=1.0). The number of erythroid progenitors stimulated at 5% O2 and 0.2 U/ml Epo was similar to that obtained with 2.0 U/ml Epo maintained at ambient oxygen tensions (no addition).

[2] = test system: CFU-GM; assay: Colony formation assay (CFA), cord blood LDMNC: CFU-GM colonies; assay type: cell-based, human; conditions: 2 U/ml Epo; for effect on CFU-GM numbers (in words): ambient O2; for CFU-GM progenitor number, fold increase: ambient O2, vs vehicle control
Method: This technique, referred to as the colony formation assay (CFA), is the most widely used biological assay to identify and enumerate erythroid progenitors present in hematopoietic tissue such as blood and bone marrow. Cell populations containing erythroid progenitors are plated in semi-solid suspensions of methyl cellulose, agar, low melting agarose or related substances in nutrient culture medium containing 1-3 U/ml Epo and 10 ng/ml IL-3 to specifically stimulate erythroid progenitors. Plates are incubated at 37° C. for 14 days during which time the erythroid progenitors form characteristic hemoglobinized (red) colonies. Two distinct but related erythroid progenitors can be distinguished based on colony size and morphology: BFU-E, the most primitive recognizable erythroid progenitor forms large multilobular colonies whereas the more mature CFU-E forms smaller spherical colonies.
Adult hemoglobin was purified according to U.S Pat. Nos. 5,439,591 and 5,545,328 to obtain HAo and HEMOLINK™ was prepared from HAo according to U.S. Pat. No. 5,532,352. Human umbilical cord blood intended for discard was collected from the umbilical vein of placentas immediately postpartum into 10 ml vacutainer tubes containing 143 USP units/ml sodium heparin. Low density mononuclear cells were separated from red blood cells by centrifugation over a 1.077 g/ml density gradient Cells removed from the plasma/density gradient interface were incubated overnight in a tissue culture flask with 10 ml cell culture medium containing 10% fetal bovine serum, and non-adherent LDMNC were further purified with an additional density gradient step. The LDMNC were then plated into colony formation assays (CFA) on the second day of isolation. In the CFA, LDMNC were plated at a density of 1×10^5 cells/ml in Iscoves modified Dulbeccos cell culture medium containing 0.8% methyl-cellulose, 30% fetal bovine serum, 1% bovine serum albumin, 0.1 mM 2-mercaptoethanol and 2 mM L-glutamine. Unless indicated otherwise, under standard CFA conditions 2 U/ml Epo and 10 ng/ml IL-3 are added to the formulation to stimulate hematopoietic progenitor growth, specifically BFU-E, CFU-E and CFU-GM.
Each condition was tested in duplicate in from 2-18 independent experiments. Cultures were maintained in a humidified incubator at 37° C., 5% CO2 and ambient oxygen tensions. The number of hematopoietic progenitors was scored between days 13-15 by counting the number and types of colonies present.
The effect of the various additives on the inhibitory effect of succinylacetone (SA), a heme synthesis inhibitor, on erythroid progenitors was determined. Primary LDMNC were cultured in methyl cellulose as described in Example 1. Cord blood LDMN were plated in the presence of 1.0 mg/ml HAo (15.6 μM; n=12) or HEMOLINK™ (15.6 μM; n=5), 100 μM hemin (n=12), 250 μM FeCl3 (n=11) or no addition (n=12), in absence or presence of 0.5 mM SA. Cultures were maintained in a humidified chamber at 37° C., 5% CO2, and ambient oxygen tensions for 14 days.
HEMOLINK™ was evaluated for its ability to protect erythroid progenitor cells from toxicity due to ganciclovir. Cord blood LDMNC were set up in CFAs in the presence and absence of 1 mg/ml HEMOLINK™ plus 0, 0.1, 1.0, 10, 50 or 100 μM ganciclovir. Conditions for the CFA were similar to those described in Examples 1-4. […] All data are expressed relative to the number of colonies of control plates without HEMOLINK™. The hematopoietic progenitors display different sensitivities to ganciclovir. CFU-E were unaffected by 1 μM ganciclovir. However, a similar inhibition of BFU-E occurs at a 50-fold lower dose of ganciclovir (1 μM). […] Due to the difficulty in scoring CFU-GM in the presence of hemoglobin precipitates, as previously noted, they could not be accurately measured under these conditions. Thus, HEMOLINK™ reduces toxicity of ganciclovir to erythroid progenitors with the most pronounced effect on BFU-E cells.

[3] = dose 1000 μg/ml, underestimated due to hemoglobin precipitates

C=CC1=C(C)C2=Cc3c(C=C)c(C)c4[n]3[Fe-2]35([Cl])[n]6c(c(C)c(CCC(=O)O)c6=CC6=[N+]3C(=C4)C(C)=C6CCC(=O)O)=CC1=[N+]25 [hemin]
growth of erythroid progenitors in the absence of Epo, adult blood [1]: could not support the growth of erythroid progenitors in the absence of Epo | erythroid progenitor number, adult blood, 5% O2 and 0.2 U/ml Epo (in words) [1]: stimulated further increases in erythroid progenitor number | effect on CFU-GM numbers (in words) [2]: unaffected | CFU-GM progenitor number, fold increase ([2]; dose 1.0 μM): 1.5 fold | CFU-GM progenitor number, fold increase ([2]; dose 10 μM): 1.4 fold | CFU-GM progenitor number, fold increase ([2]; dose 64 μM): 1.2 fold | CFU-GM progenitor number, fold increase ([2]; dose 100 μM): 1.0 fold | CFU-GM progenitor number, fold increase ([2]; dose 250 μM): 1.4 fold

[Cl][Fe]([Cl])[Cl] [FeCl3]
growth of erythroid progenitors in the absence of Epo, adult blood [1]: could not support the growth of erythroid progenitors in the absence of Epo | fold increase in erythroid progenitor number, adult blood, 0.2 U/ml Epo ([1]; 0.2 U/ml Epo, ~20% O2, 250 μM FeCl3): ~2 fold | effect on CFU-GM numbers (in words) [2]: unaffected | CFU-GM progenitor number, fold increase ([2]; dose 1.0 μM): 1.2 fold | CFU-GM progenitor number, fold increase ([2]; dose 10 μM): 1.0 fold | CFU-GM progenitor number, fold increase ([2]; dose 100 μM): 0.8 fold | CFU-GM progenitor number, fold increase ([2]; dose 250 μM): 1.3 fold

HEMOLINK™: chemically crosslinked hemoglobin prepared by treating human hemoglobin with a polyaldehyde (O-raffinose)
growth of erythroid progenitors in the absence of Epo, adult blood [1]: could not support the growth of erythroid progenitors in the absence of Epo | erythroid progenitor number, adult blood, 5% O2 and 0.2 U/ml Epo (in words) [1]: stimulated further increases in erythroid progenitor number | CFU-GM progenitor number, fold increase [2, 3]: *0.6 fold

HAo: adult human hemoglobin obtained from red blood cells and purified by displacement chromatography; uncross linked product
growth of erythroid progenitors in the absence of Epo, adult blood [1]: could not support the growth of erythroid progenitors in the absence of Epo | erythroid progenitor number, adult blood, 5% O2 and 0.2 U/ml Epo (in words) [1]: stimulated further increases in erythroid progenitor number | effect on CFU-GM numbers (in words) [2]: does not stimulate CFU-GM | CFU-GM progenitor number, fold increase ([2]; dose 10 μg/ml): 1.4 fold | CFU-GM progenitor number, fold increase ([2]; dose 100 μg/ml): 1.5 fold | CFU-GM progenitor number, fold increase ([2]; dose 500 μg/ml): 1.2 fold | CFU-GM progenitor number, fold increase [2, 3]: **0.5 fold
